# pIC50: −log10 of the molar value.
# How the values were obtained:
# [1] = test system: FaDu; test: Cytotoxicity assay (propidium iodide), FaDu; assay type: cell-based; details: Homo sapiens; FaDu (C11a, hypopharyngeal); 48 hours
# Protocol: (§1) Cells from cell lines as mentioned in the table given below were seeded at a density of 3000 cells/well in a white opaque 96-well plate. Following incubation at 37° C./5% CO2 for a period of 18-24 hours, the cells were treated with various concentrations (stock solution was prepared in DMSO and subsequent dilutions were made in media as per ATCC guidelines) of the representative compounds of present invention (refer table 3) for a period of 48 hours. At the end of treatment, the spent culture medium was discarded, the cells were washed with 1×PBS and 200 μl of 7 μg/ml propidium iodide was added to each well. The plates were frozen at −70° C. for at least 24 hours. For analysis, the plates were brought to RT, allowed to thaw and were read in PolarStar fluorimeter with the fluorescence setting. The percentage of viable cells in the non treated set of wells was considered to be 100 and the percentage viability following treatment was calculated accordingly. IC50 values were calculated from graphs plotted using these percentages.
# [2] = test system: U 373; test: Cytotoxicity assay (propidium iodide), U 373; assay type: cell-based; details: Homo sapiens, U373 MG; U 373 (C8a, glioblastoma); 48 hours
# Protocol: as §1
# [3] = test system: U266B1; test: Cytotoxicity assay (propidium iodide), U266B1; assay type: cell-based; details: U266B1 (C7a, multiple myeloma); 48 hours
# Protocol: as §1
# [4] = test system: U 87 MG; test: Cytotoxicity assay (propidium iodide), U 87 MG; assay type: cell-based; details: Homo sapiens; U 87 MG (C8b, glioblastoma); 48 hours
# Protocol: as §1
# [5] = test system: MDA MB 468; test: Cytotoxicity assay (propidium iodide), MDA MB 468; assay type: cell-based; details: Homo sapiens; MDA MB 468 (C6b, breast); 48 hours
# Protocol: as §1
# [6] = test system: G361; test: Cytotoxicity assay (propidium iodide), G361; assay type: cell-based; details: G-361; G361 (C9a, human melanoma); 48 hours
# Protocol: as §1
# [7] = test system: RPMI 8226; test: Cytotoxicity assay (propidium iodide), RPMI 8226; assay type: cell-based; details: Homo sapiens; RPMI 8226 (C7b, multiple myeloma); 48 hours
# Protocol: as §1
# [8] = test system: MCF7; test: Cytotoxicity assay (propidium iodide), MCF7; assay type: cell-based; details: Homo sapiens; MCF7 (C6c, breast); 48 hours
# Protocol: as §1
# [9] = test system: DSS-induced colitis in C57BL/6J mice; test: Ulcerative colitis, DSS-induced colitis in mice; assay type: in vivo; details: 3% DSS, 10 mg/kg orally daily, day 6 to day 10
# Protocol: The efficacy of compounds of the present invention on the gross pathology of colitis and proinflammatory mediators was determined by following the method described in Am. J. Physiol. Gastrointest. Liver Physiol.
# C57BL/6J mice (6 weeks of age, weighing 18-22 gms) were obtained from Jackson Laboratories (Bar Harbor, Me.) and housed in individually ventilated cage (IVC) system. Colitis was induced in mice by replacing drinking water with 3% (w/v) DSS (molecular weight 35-50 kDa, ICN Biomedicals, Aurora, Ohio, US) in water. This solution was made available to the experimental animals ad libitum, from day 0 to day 10. A batch of six naive animals received water instead of DSS during this period.
# DSS-induction of colitis was manifested with increase in clinical disease activity index associated with weight loss and presence of blood in feces.
# The animals were weighed every day and the record of body weights was maintained. The compound of Example 25 (10 mg/kg, prepared at a concentration of 1 mg/mL in 0.5% (w/v) CMC after mixing a drop of Tween 20) was administered orally daily to the colitis induced animals. This treatment was initiated on day 6 and continued up to day 10. During this period, DSS control animals received DSS, positive control animals received 5-aminosalicylic acid (5-ASA, 25 mg/kg, p.o.) and naïve animals received 0.5% CMC once daily.
# At the end of DSS treatment period, mice were humanely euthanized with 15% urethane (i.p.). The whole colon (i.e., including ceacum, proximal colon and distal colon) was excised.
# The colon was macrosopically assessed by determining • a) Rectal bleeding/blood in faeces • b) Stool consistency • c) Blood in colon • d) Colon length • e) % weight loss • f) Blood hemoglobin concentration
# Disease Activity Index: various features were scored as delineated in the following table.
# Disease activity index is the sum of scores of all features.
smiles,measurement,setting,value
"CN(N=Cc1cnc2ccc(-c3cccnc3)cn12)S(=O)(=O)c1cccc(F)c1 [Example 5, 3-Fluoro-N-methyl-N′-((6-(pyridine-3-yl)imidazo[1,2-a]pyridine-3-yl)methylene)benzenesulfonohydrazide]",pIC50,[1],5.30 to 8.00
"CN(N=Cc1cnc2ccc(-c3cccnc3)cn12)S(=O)(=O)c1ccc(F)cc1 [Example 6, 4-Fluoro-N-methyl-N′-((6-(pyridine-3-yl)imidazo[1,2-a]pyridine-3-yl)methylene)benzenesulfonohydrazide]",pIC50,[1],5.30 to 8.00
"Cc1ccc(F)cc1S(=O)(=O)N(C)N=Cc1cnc2ccc(-c3cccnc3)cn12 [Example 21, 5-Fluoro-N, 2-dimethyl-N′-((6-(pyridine-3-yl)imidazo[1,2-a]pyridine-3-yl)methylene) benzenesulfonohydrazide]",pIC50,[2],5.30 to 8.00
same,pIC50,[3],5.30 to 8.00
same,pIC50,[4],5.30 to 8.00
same,pIC50,[5],5.30 to 8.00
same,pIC50,[6],5.30 to 8.00
same,pIC50,[7],5.30 to 8.00
same,pIC50,[8],5.30 to 8.00
Cc1ccc([N+](=O)[O-])cc1S(=O)(=O)N(C)N=Cc1cnc2ccc(-c3cccnc3)cn12 [Example 25],pIC50,[8],5.30 to 8.00
same,DSS-induced body weight loss,[9],attenuated
same,DSS-induced colon bleeding,[9],attenuated
same,DSS-induced decrease in hematocrit,[9],inhibited
same,DSS-induced disease activity index,[9],reduced
same,DSS-induced shortening of colon,[9],inhibited
same,rectal bleeding index,[9],improved

# — patent publication US8741932B2, “Imidazopyridine derivatives” (Piramal Enterprises Limited, priority 2009, dated 2014)
